Test results reported in patent EP0536208B1, “1,2-DIHYDRO-3H-DIBENZISOQUINOLINE-1,3-DIONE ANTICANCER AGENTS” (RESEARCH CORPORATION TECHNOLOGIES, INC., priority 1990, dated 1992).

Key:
[1] = system: Melanoma; assay: Colony forming assay in fresh human tumors; type: cell-based; conditions: .001 ug/mL continuously, tumor cell survival of less than 50% of control
Procedure: The clonogenic assays were conducted in accordance with the procedure described hereinbelow: 1) Colony Forming Assays in Soft Agar: Fresh human or murine tumors are disaggregated into single cell suspensions using mechanical, hypoosmotic and/or enzymatic (trypsin) methods. The single cells (about 5 X 10^4-10^5) are plated in 35 mm plastic petri dishes onto a 1 ml "feeder layer" of 0.3% agar dissolved in growth medium containing 5-10% vol/vol of heat-inactivated fetal bovine serum, molten 0.3% agar and the antibiotics penicillin (100 u/mL) and streptomycin (100 ug/mL). Drug exposures can be performed for one hour or continuously (drugs added to final plating medium). Tumor cell colonies > 60 uM in size are counted by automated image analysis after 10-20 days of incubation in a humidified, 5-10% CO2-gassed environment maintained at 37°C. Inhibition of colony formation is calculated based on comparisons to control (untreated) plates wherein the growth of hundreds of colonies/plate is typical. […]
Fresh human tumor specimens disaggregated to single cell suspensions and exposed to .001 ug/mL of drug continuously. Percent survival represents the fraction of tumor colonies (> 60 uM size) obtained after drug treatment compared to untreated cells of the same tumor. […] Each tumor sample is analyzed in three different petri dishes (i.e., n = 3 for each sample).

[2] = system: LOVOp32; assay: Activity against human colon tumor cells (MTT assay, 3 day drug exposure); type: cell-based; conditions: cells plated 24 hr. prior to drug addition, read-out: Concentration for 50% inhibition of colony formation for human colon tumors
Procedure: (§1) For example, the compounds of the present invention were evaluated for cytotoxic activities in cloned human colon carcinomas. The clonogenic assays were conducted in accordance with the procedure described hereinbelow: 1) Colony Forming Assays in Soft Agar: Fresh human or murine tumors are disaggregated into single cell suspensions using mechanical, hypoosmotic and/or enzymatic (trypsin) methods. The single cells (about 5 X 10^4-10^5) are plated in 35 mm plastic petri dishes onto a 1 ml "feeder layer" of 0.3% agar dissolved in growth medium containing 5-10% vol/vol of heat-inactivated fetal bovine serum, molten 0.3% agar and the antibiotics penicillin (100 u/mL) and streptomycin (100 ug/mL). Drug exposures can be performed for one hour or continuously (drugs added to final plating medium). Tumor cell colonies > 60 uM in size are counted by automated image analysis after 10-20 days of incubation in a humidified, 5-10% CO2-gassed environment maintained at 37°C. Inhibition of colony formation is calculated based on comparisons to control (untreated) plates wherein the growth of hundreds of colonies/plate is typical. (Salmon SE, et al., N Engl J Med 298(24):1321-1327, 1978).
(§2) Compounds of the present invention were tested for their in vitro activity in tumor cells sensitive and resistant to standard anti-cancer agents. The tumor cell lines used in this protocol are 8226 human Myeloma^1; 8226/Dox-40^2, L-1210/Murine Leukemia, multidrug resistant L-210/^3, 2780 Human Ovarian Cancer and 2780/AD^4. Each of these resistant cell lines is known as a multidrug resistant or "MDR" cell line. These cell lines produce a 170,00 molecular weight membrane protein termed the P-glycoprotein which acts as an active drug efflux pump. Thus, once a cell produces the P-glycoprotein, it has the capability of pumping out of the cell a large variety of unrelated natural products. […] The protocol for measuring the effectiveness of compounds of the present invention is as follows: 2) In Vitro Tumor Cell Viability Assays Using MTT-Dye: Tumors are processed into a single cell suspension as described above. The cells are plated at a concentration of 3-5 X 10^4/1 mL well into plastic 96-well plates. Growth medium containing 5-10% (vol/vol) heat-inactivated fetal bovine serum and penicillin/streptomycin (as above) is added prior to incubation at 37°C for six days. Afterwards the medium containing the drug is removed, the cells are "washed" by centrifugation in fresh medium or phosphate-buffered saline (pH 7.4). A tetrazolium dye is then added (3,4,5-dimethylthiazol-2-yl)-2,5-diphenyl tetrazolium bromide (MTT). This dye forms a colored formazan product upon activation by mitochondrial reductases in viable cells. Typically, the formazan product is solubilized in acid-propanol or DMSO. The intensity of the color is proportional to viable cell numbers and this is quantitated by spectrophotometric absorbance ([…]) on a micro ELISA plate reader. Test results are calibrated in % control absorbance from untreated tumor cells (Mossman T: J Immunol Meth 65:55-63, 1983). Using the above procedure, Compound 1 was tested for its cytotoxic activity with respect to various tumor cell lines.

[3] = system: 205p14; assay: as above; type: cell-based; conditions: cells plated 24 hr. prior to drug addition, read-out: Concentration for 50% inhibition of colony formation for human colon tumors
Procedure: as §1, §2

[4] = system: P-388/ADR (adriamycin-Resis-tant); assay: Survival study in tumor-bearing mice, P-388/adriamycin resistant model; type: in vivo; conditions: 10^6 cells in DBA mice; 15 mg/kg; d1,5,9; intraperitoneally
From the text: Thus, in the lower level resistant cell lines, such as the ten-fold mitomycin C resistant L1210 and the tenfold adriamycin resistant 2780 ovarian cancer, Compound 1 maintained its complete activity as shown in Table II. The anti-tumor activity of compounds of the present invention in in vivo mouse murine models were studied. 3) Survival Studies In Tumor-Bearing Mice: 3.1 P-388 Leukemia Modles: One million P-388 leukemia cells originally obtained from American Type Culture Collection (Rockville, MD) are implanted into the peritoneum of adult DBA-2J male mice (Jackson Laboratories, Bar Harbor, ME). Twenty four hours later, drugs diluted in physiological saline are injected intraperitoneally at a volume of 0.1 mL/10 g body weight. The mice (10/group) are then followed for survival daily and compared to untreated tumor bearing mice. […] The perpendicular widths of the tumors are measured by caliper thrice weekly and converted to an estimated tumor mass according to the formula: ((1 X W)^2)/(2)= grams of tumor. [formula] wherein • W = width of tumor • l = length of tumor Tumor growth delay is calculated as the difference in days for tumors in treated mice to reach an estimated mass 750 mg or 1.5 g compared to that in untreated controls: Days to reach 750 mg (Treated - Control) = Days of Tumor Growth Delay [formula] […]

IC50 [2]: 0.3 µM
IC50 [3]: 0.4 µM
Compound: CN(C)CCN1C(=O)c2cccc3cc4ccccc4c(c23)C1=O [Compound 1, 2-[2'-(dimethylamino)ethyl]-1,2-dihydro-3H-dibenz(deh)isoquinoline-1,3-dione]
Overall Response [1]: 64%
Experimental Activity, ILS (Percentage Increased Lifespan) [4]: 33 ILS
